For data set [1], the target named is Photinus pyralis (firefly) luciferase (Photinus pyralis, UniProt P08659). Kind of data set: biochemical. Format: biochemical.
In data set [2] the target is T1, human CYP2C9 (Homo sapiens, UniProt P11712). The data set can be described thus: biochemical.
For another data set, the target named is CYP3A4 (Homo sapiens, UniProt P08684).
Data set [3] concerns the target T2, human CYP2C19 (Homo sapiens, UniProt P33261). The data set can be described thus: biochemical.
The target in a further data set is T3, human CYP1A2 (Homo sapiens, UniProt P05177).
T3 sequence (P05177 1-516): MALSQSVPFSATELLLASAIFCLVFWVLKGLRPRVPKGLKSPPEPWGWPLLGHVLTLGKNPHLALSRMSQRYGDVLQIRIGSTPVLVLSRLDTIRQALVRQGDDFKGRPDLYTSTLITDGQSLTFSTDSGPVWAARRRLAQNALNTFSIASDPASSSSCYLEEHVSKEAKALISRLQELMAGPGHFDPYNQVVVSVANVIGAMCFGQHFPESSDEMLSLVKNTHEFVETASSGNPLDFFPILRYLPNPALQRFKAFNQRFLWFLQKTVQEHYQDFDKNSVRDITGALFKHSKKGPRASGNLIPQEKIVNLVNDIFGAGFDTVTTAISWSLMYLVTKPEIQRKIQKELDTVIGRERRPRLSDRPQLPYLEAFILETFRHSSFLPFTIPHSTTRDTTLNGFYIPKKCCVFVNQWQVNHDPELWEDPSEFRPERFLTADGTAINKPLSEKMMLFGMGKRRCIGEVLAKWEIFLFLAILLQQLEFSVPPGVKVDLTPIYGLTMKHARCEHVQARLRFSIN
The data set can be described thus: biochemical.

The next data set addresses human CYP2D6 (Homo sapiens, UniProt P10635).
The target in data set [4] is T2, human CYP2C19.
Data set [5] addresses T1, human CYP2C9.
[6] abbreviates: CYP2C9 AC50 (half-maximal activity concentration).
The mark [7] stands for this setting: CYP2C19 AC50 (half-maximal activity concentration).
The mark [8] stands for this setting: CYP1A2 AC50 (half-maximal activity concentration).

These results are taken from paper PMC12155096 (International Journal of Molecular Sciences, 2025).

Where a name gives a salt, the structure may show the parent alone. Read-outs that look alike come from different tables or passages of the source.

T1 sequence (P11712 whole entry): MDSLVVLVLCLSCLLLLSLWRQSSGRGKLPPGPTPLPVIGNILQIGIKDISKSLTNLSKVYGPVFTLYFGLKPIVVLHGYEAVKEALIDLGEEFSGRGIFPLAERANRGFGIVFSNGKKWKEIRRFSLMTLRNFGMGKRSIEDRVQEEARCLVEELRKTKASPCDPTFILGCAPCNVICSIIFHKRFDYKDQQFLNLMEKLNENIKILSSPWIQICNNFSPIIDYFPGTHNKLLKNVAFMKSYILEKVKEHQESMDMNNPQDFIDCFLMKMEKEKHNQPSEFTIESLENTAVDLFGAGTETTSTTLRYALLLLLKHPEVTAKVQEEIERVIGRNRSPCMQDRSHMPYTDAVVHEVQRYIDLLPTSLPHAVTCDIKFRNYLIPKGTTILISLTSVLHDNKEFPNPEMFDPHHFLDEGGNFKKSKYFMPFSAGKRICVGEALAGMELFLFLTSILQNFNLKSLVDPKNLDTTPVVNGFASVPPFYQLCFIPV
T2 sequence (P33261 whole entry): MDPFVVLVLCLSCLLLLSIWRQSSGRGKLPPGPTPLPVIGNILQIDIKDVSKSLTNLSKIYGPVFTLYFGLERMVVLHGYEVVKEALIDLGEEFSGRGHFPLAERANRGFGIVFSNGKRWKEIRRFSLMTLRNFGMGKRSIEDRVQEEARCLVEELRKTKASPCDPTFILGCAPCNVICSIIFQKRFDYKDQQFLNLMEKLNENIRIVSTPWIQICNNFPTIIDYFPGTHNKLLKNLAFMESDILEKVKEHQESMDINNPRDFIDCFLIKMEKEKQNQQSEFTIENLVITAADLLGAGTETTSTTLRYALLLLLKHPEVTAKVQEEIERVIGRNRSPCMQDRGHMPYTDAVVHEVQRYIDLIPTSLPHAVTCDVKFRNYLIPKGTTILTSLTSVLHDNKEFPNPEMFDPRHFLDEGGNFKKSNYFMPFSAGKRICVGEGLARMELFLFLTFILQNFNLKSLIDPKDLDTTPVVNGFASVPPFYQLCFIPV
CYP3A4, sequence (P08684 whole entry): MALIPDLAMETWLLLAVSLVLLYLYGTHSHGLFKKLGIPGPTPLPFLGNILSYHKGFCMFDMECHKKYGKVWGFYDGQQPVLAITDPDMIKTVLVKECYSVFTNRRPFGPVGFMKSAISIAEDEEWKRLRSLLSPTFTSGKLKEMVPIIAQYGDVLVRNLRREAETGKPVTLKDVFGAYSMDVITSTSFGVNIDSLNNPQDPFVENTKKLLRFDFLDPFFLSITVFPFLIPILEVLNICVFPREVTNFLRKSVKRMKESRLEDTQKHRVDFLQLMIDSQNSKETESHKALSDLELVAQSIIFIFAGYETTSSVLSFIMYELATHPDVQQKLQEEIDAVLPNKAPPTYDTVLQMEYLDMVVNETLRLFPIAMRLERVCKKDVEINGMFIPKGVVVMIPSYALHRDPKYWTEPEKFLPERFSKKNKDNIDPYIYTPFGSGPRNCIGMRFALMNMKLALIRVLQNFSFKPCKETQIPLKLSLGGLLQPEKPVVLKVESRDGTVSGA
Photinus pyralis (firefly) luciferase, sequence (P08659 whole entry): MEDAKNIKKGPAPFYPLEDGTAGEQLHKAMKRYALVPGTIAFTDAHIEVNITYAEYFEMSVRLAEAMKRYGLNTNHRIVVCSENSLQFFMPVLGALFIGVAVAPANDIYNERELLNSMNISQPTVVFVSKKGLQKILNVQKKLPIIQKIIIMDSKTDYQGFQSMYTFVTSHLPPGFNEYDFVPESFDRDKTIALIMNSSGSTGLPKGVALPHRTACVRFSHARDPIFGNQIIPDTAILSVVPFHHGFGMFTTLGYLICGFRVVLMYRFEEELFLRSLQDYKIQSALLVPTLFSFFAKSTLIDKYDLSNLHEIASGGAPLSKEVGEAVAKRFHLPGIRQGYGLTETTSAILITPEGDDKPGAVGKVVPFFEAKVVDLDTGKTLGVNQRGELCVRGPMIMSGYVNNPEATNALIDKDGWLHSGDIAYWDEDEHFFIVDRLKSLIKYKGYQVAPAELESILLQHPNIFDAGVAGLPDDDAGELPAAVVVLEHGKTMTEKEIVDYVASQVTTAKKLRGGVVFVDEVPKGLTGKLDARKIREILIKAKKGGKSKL
human CYP2D6, sequence (P10635 whole entry): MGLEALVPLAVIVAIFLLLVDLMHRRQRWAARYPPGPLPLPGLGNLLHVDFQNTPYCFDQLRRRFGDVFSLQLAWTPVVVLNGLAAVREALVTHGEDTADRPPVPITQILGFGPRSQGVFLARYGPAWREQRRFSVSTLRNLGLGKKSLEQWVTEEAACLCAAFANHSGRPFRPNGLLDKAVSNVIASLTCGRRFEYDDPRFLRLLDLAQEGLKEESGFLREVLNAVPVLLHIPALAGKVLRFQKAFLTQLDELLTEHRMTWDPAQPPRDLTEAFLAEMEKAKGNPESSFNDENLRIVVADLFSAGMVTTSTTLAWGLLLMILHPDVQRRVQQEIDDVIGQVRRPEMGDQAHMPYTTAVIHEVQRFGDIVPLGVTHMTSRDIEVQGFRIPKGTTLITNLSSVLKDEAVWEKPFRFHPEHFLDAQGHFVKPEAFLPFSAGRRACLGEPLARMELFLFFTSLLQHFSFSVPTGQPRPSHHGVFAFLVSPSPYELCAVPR

Take `CC(=O)C1(O)CCC2C3CCC4=CC(=O)CCC4(C)C3CCC21C` (stereo not drawn) [17alpha-Hydroxyprogesterone]: the “Luciferase IC50 (half-maximal inhibitory concentration)” value in data set [1] is “Inactive”.

On to Diniconazole, for which, in data set [1], the “Luciferase IC50 (half-maximal inhibitory concentration)” value is recorded as “Inactive”.

For the compound `O=C(c1ccc(OCCN2CCCCC2)cc1)c1c(-c2ccc(O)cc2)sc2cc(O)ccc12` [Raloxifene hydrochloride], the “Luciferase IC50 (half-maximal inhibitory concentration)” value in data set [1] is “Inactive”.

Turning to `CSc1ccc2c(c1)N(CCC1CCCCN1C)c1ccccc1S2` (stereo not drawn) [Thioridazine hydrochloride], the “Luciferase IC50 (half-maximal inhibitory concentration)” value in data set [1] was “Inactive”.

As for `CC(C)c1nc(CN(C)C(=O)N[C@H](C(=O)N[C@@H](Cc2ccccc2)C[C@H](O)[C@H](Cc2ccccc2)NC(=O)OCc2cncs2)C(C)C)cs1` [ritonavir, reference compound], the “Luciferase IC50 (half-maximal inhibitory concentration)” value in data set [1] is given as “Inactive”.

`CCCNC(C)(C)COC(=O)c1ccccc1` [Meprylcaine hydrochloride]: in data set [1], the “Luciferase IC50 (half-maximal inhibitory concentration)” value was “Inactive”.

As to `CCOc1ccccc1OCC1CNCCO1` (stereo not drawn) [Viloxazine hydrochloride], the “Luciferase IC50 (half-maximal inhibitory concentration)” value in data set [1] was “Inactive”.

As for `NC(=O)Cc1cccc(C(=O)c2ccccc2)c1N` [Nepafenac], the AC50 (in general, the concentration at which the activity in the assay is half-maximal) on human CYP2C9 [2] (setting [6]) amounted to 25.3 µM; on human CYP2C19 [3] (setting [7]) it was 29.9 µM; at human CYP1A2 (setting [8]) it was 14.4 µM. The “CYP3A4 AC50 (half-maximal activity concentration)” value (from here on “CYP3A4 AC50”) on CYP3A4 is listed as “Inactive”. Also, the “CYP2D6 AC50 (half-maximal activity concentration)” value (“CYP2D6 AC50” below) at human CYP2D6 was “Inactive”.

With `O=[N+]([O-])c1ccc2c3c(cccc13)CC2` [5-Nitroacenaphthene], the AC50 on human CYP2C9 [2] (setting [6]) turned out to be 8.98 µM; on human CYP2C19 [3] (setting [7]), 33.6 µM; at human CYP1A2 (setting [8]), 2.25 µM. Besides, the “CYP3A4 AC50” value on CYP3A4 is given as “Inconclusive inhibitor”. Further, the “CYP2D6 AC50” value on human CYP2D6 is “Inactive”.

As for `Nc1c(Cl)cc([N+](=O)[O-])cc1Cl` [Dicloran], the AC50 at human CYP2C9 [2] (setting [6]) amounted to 17.9 µM; on human CYP2C19 [3] (setting [7]) it was 55.8 µM; at human CYP1A2 (setting [8]), 2.84 µM. The “CYP3A4 AC50” value on CYP3A4 is “Inactive”. Further, at human CYP2D6, the “CYP2D6 AC50” value is recorded as “Inactive”.

`COC(=O)Nc1nc2ccc(C(=O)c3cccs3)cc2[nH]1` [Nocodazole]: the values for the AC50 at human CYP2C9 [2] (setting [6]) and on human CYP1A2 (setting [8]) were 4.43 µM and 15.2 µM, respectively. Further, the “CYP3A4 AC50” value on CYP3A4 is “Inactive”. In addition, the “CYP2C19 AC50 (half-maximal activity concentration)” value (shortened to “CYP2C19 AC50”) at human CYP2C19 [4] is reported as “Inconclusive inhibitor”. Moreover, the “CYP2D6 AC50” value on human CYP2D6 is “Inconclusive inhibitor”.

As for `CCC(C)c1ccccc1O` (stereo not drawn) [2-(Butan-2-yl)phenol], the results for the AC50 at human CYP2C9 [2] (setting [6]), at human CYP2C19 [3] (setting [7]) and at human CYP1A2 (setting [8]) were 53.2 µM, 9.46 µM and 38.5 µM, respectively. For the same compound, at CYP3A4, the “CYP3A4 AC50” value was “Inconclusive inhibitor”. In addition, at human CYP2D6, the “CYP2D6 AC50” value was “Inactive”.

Consider `C[C@]12CC[C@@H]3c4ccc(O)cc4CC[C@H]3[C@@H]1CC[C@@H]2O` [17beta-Estradiol], for which the AC50 at human CYP2C9 [2] (setting [6]) turned out to be 5.72 µM; at human CYP2C19 [3] (setting [7]), 16.8 µM; on human CYP1A2 (setting [8]), 29.1 µM. The “CYP3A4 AC50” value on CYP3A4 was “Inconclusive activator”. In addition, the “CYP2D6 AC50” value on human CYP2D6 is listed as “Inactive”.

Regarding `O=[N+]([O-])c1ccc(O)cc1C(F)(F)F` [3-Trifluoromethyl-4-nitrophenol], the AC50 worked out at 34.1 µM on human CYP2C9 [2] (setting [6]), 27.9 µM at human CYP2C19 [3] (setting [7]) and 56.6 µM at human CYP1A2 (setting [8]). The “CYP3A4 AC50” value on CYP3A4 is “Inconclusive inhibitor”. Besides, the “CYP2D6 AC50” value at human CYP2D6 is “Inconclusive inhibitor”.

Regarding `COc1ccccc1OC(=O)Oc1ccccc1OC` [Guaiacol carbonate], the results for the concentration at half-maximal activity (AC50) on human CYP2C9 [2], on human CYP2C19 [3] and at human CYP1A2 were 14.9 µM, 9.77 µM and 6.41 µM, respectively. Besides, at CYP3A4, the “CYP3A4 AC50” value is on record as “Inactive”. At human CYP2D6, the “CYP2D6 AC50” value is given as “Inactive”.

For `CC(C)(C)c1ccc(OC(=O)c2ccccc2O)cc1` [4-tert-Butylphenyl salicylate], the AC50 is 24.7 µM on human CYP2C9 [2], 14.2 µM on human CYP2C19 [3] and 40.1 µM at human CYP1A2. The “CYP3A4 AC50” value on CYP3A4 is given as “Inactive”. For the same compound, on human CYP2D6, the “CYP2D6 AC50” value is “Inactive”.

Consider `CCC(C)c1ccc(O)cc1` (stereo not drawn) [4-(Butan-2-yl)phenol], for which the figures for the AC50 on human CYP2C9 [2] (setting [6]), on human CYP2C19 [3] (setting [7]) and on human CYP1A2 (setting [8]) were 33.4 µM, 3.47 µM and 34.6 µM, respectively. On CYP3A4, the “CYP3A4 AC50” value was “Inactive”. Besides, the “CYP2D6 AC50” value on human CYP2D6 is reported as “Inactive”.

As for `CCN(CC)c1ccc(C=O)cc1` [4-(Diethylamino)benzaldehyde], the AC50 turned out to be 20.1 µM at human CYP2C9 [2], 14.3 µM at human CYP2C19 [3] and 5.66 µM on human CYP1A2. Besides, the “CYP3A4 AC50” value at CYP3A4 is recorded as “Inactive”. Also, the “CYP2D6 AC50” value at human CYP2D6 is given as “Inconclusive inhibitor”.

Turning to `C[C@]12CC[C@@H]3c4ccc(O)cc4CC[C@H]3[C@@H]1C[C@@H](O)[C@@H]2O` [Estriol], the AC50 at human CYP2C9 [2] (setting [6]) is 21 µM; on human CYP2C19 [3] (setting [7]), 31.2 µM; on human CYP1A2 (setting [8]) it was 34.4 µM. For the same compound, the “CYP3A4 AC50” value on CYP3A4 was “Inactive”. Also, the “CYP2D6 AC50” value on human CYP2D6 is given as “Inactive”.

Take `CCNc1nc(NC(C)CC)nc(OC)n1` (stereo not drawn) [Secbumeton]: the AC50 at human CYP2C9 [2] was found to be 43.5 µM; on human CYP2C19 [3], 26.4 µM; at human CYP1A2 it was 26.2 µM. Further, the “CYP3A4 AC50” value at CYP3A4 is listed as “Inactive”. Besides, the “CYP2D6 AC50” value at human CYP2D6 is listed as “Inactive”.

As to `CC(C)c1ccccc1O` [2-Isopropylphenol], the “CYP3A4 AC50” value at CYP3A4 is listed as “Inactive”. Besides, the AC50 was 9.09 µM at human CYP2C19 [3] and 47.7 µM at human CYP1A2. Besides, the “CYP2C9 AC50 (half-maximal activity concentration)” value at human CYP2C9 [5] was “Inactive”. For the same compound, the “CYP2D6 AC50” value at human CYP2D6 is reported as “Inactive”.

In the case of `Nc1c(Br)cc([N+](=O)[O-])cc1Br` [2,6-Dibromo-4-nitroaniline], the AC50 on human CYP2C9 [2] (setting [6]) was 18.1 µM; at human CYP2C19 [3] (setting [7]), 43.1 µM; at human CYP1A2 (setting [8]), 1.27 µM. Also, on CYP3A4, the “CYP3A4 AC50” value is “Inactive”. Moreover, the “CYP2D6 AC50” value at human CYP2D6 is on record as “Inactive”.

`COc1cccc(O)c1` [3-Methoxyphenol]: the half-maximal activity concentration (AC50) at human CYP2C9 [2] stood at 40.4 µM; on human CYP1A2, 49.3 µM. Besides, the “CYP3A4 AC50” value at CYP3A4 was “Inactive”. In addition, the “CYP2C19 AC50” value at human CYP2C19 [4] is reported as “Inactive”. Moreover, the “CYP2D6 AC50” value on human CYP2D6 is “Inactive”.

For the compound `Oc1ccc(Cc2ccc(O)cc2)cc1` [Bis(4-hydroxyphenyl)methane], the half-maximal activity concentration (AC50) on human CYP2C9 [2] (setting [6]) worked out at 11.8 µM; at human CYP1A2 (setting [8]), 38.8 µM. Also, the “CYP3A4 AC50” value at CYP3A4 is listed as “Inconclusive inhibitor”. For the same compound, the “CYP2C19 AC50” value on human CYP2C19 [4] was “Inconclusive inhibitor”. Moreover, at human CYP2D6, the “CYP2D6 AC50” value was “Inconclusive inhibitor”.

With `CCOc1ccccc1C(N)=O` [2-Ethoxybenzamide], the values for the AC50 at human CYP2C9 [2] and at human CYP1A2 were 31 ± 3.57 µM and 16.8 ± 1.09 µM, respectively. In addition, the “CYP3A4 AC50” value at CYP3A4 is given as “Inactive”. Further, the “CYP2C19 AC50” value at human CYP2C19 [4] is “Inactive”. Besides, the “CYP2D6 AC50” value at human CYP2D6 was “Inactive”.

`CCNc1nc(NC(C)C)nc(OC)n1` [Atraton]: the AC50 at human CYP2C9 [2] (setting [6]) came to 38.5 µM; on human CYP2C19 [3] (setting [7]), 32.1 µM; on human CYP1A2 (setting [8]) it was 28.4 µM. Further, on CYP3A4, the “CYP3A4 AC50” value is given as “Inconclusive inhibitor”. For the same compound, the “CYP2D6 AC50” value at human CYP2D6 was “Inactive”.
